According to patent US9227971B2, “Pyrazolo[1,5-a]pyrimidine compounds as mTOR inhibitors” (Merck Sharp & Dohme Corp., priority 2010, dated 2016):
Like-named read-outs stand apart in the source and are kept apart here.

Assays:
[1] = test system: phosphorylated 4E-BP1 Thr37/46 (p4E-BP1 Thr37/46), mTORC1 activity, PC3 cells; assay: mTOR target engagement assay, immunofluorescent cell-based, p4E-BP1 Thr37/46 readout (mTORC1 activity); conditions: read-out: p4E-BP1 Thr37/46 IC50
Method in brief: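 PTEN-mutant PC3 prostate cells were treated with serially diluted compound in 5% FBS F12 medium (0.25% DMSO) for ninety minutes at 37° C, glyoxal-fixed, then immunostained overnight at 4° C for p4E-BP1 Thr37/46 with an Alexa Fluor 488 secondary. IC50 came from four-parameter fits of fluorescence, DMSO-only wells defining 100%.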

[2] = test system: phosphorylated AKT Ser473 (pAKT S473), mTORC2 activity, PC3 cells; assay: mTOR target engagement assay, immunofluorescent cell-based, pAKT S473 readout (mTORC2 activity)
Method in brief: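 After blocking, cells were stained overnight at 4 °C with anti-pAKT S473 antibody, then a fluorescent secondary; inhibition was read as reduced fluorescence intensity.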

[3] = Homo sapiens, PC-3, Table 3-1, PC3 cells
[4] = Homo sapiens, PC-3, PC3 cells, compound treatment ninety minutes at 37° C.
[5] = Homo sapiens, PC-3, Table 7-8, PC3 cells

With `Cc1nnc(C(=O)N2[C@@H]3CC[C@H]2C[C@H](c2nc4c(-c5ccc(-c6nc7c(s6)CCC7)nc5)cnn4c(N)c2S(C)(=O)=O)C3)[nH]1` [Compound 3.195, ((1R,3s,5S)-3-(7-amino-3-(6-(5,6-dihydro-4H-cyclopenta[d]thiazol-2-yl)pyridin-3-yl)-6-(methylsulfonyl)pyrazolo[1,5-a]pyrimidin-5-yl)-8-azabicyclo[3.2.1]octan-8-yl)(5-methyl-4H-1,2,4-triazol-3-yl)methanone] the IC50 [1, 3] was 1000 to 10000 nM and the IC50 [2, 3] was 1000 to 10000 nM.

For `CS(=O)(=O)c1c([C@@H]2C[C@H]3CC[C@@H](C2)N3C(=O)c2nc[nH]n2)nc2c(-c3ccc(-c4ccccc4)nc3)cnn2c1N` [Compound 3.2, ((1R,3s,5S)-3-(7-amino-6-(methylsulfonyl)-3-(6-phenylpyridin-3-yl)pyrazolo[1,5-a]pyrimidin-5-yl)-8-azabicyclo[3.2.1]octan-8-yl)(1H-1,2,4-triazol-3-yl)methanone], the IC50 [1, 3] was 1 to 100 nM and the IC50 [2, 3] was 1 to 100 nM.

For `CS(=O)(=O)c1c([C@@H]2C[C@H]3CC[C@@H](C2)N3C(=O)c2nnc[nH]2)nc2c(-c3cccnc3)cnn2c1N` [Compound 3.69, ((1R,3s,5S)-3-(7-amino-6-(methylsulfonyl)-3-(pyridin-3-yl)pyrazolo[1,5-a]pyrimidin-5-yl)-8-azabicyclo[3.2.1]octan-8-yl)(4H-1,2,4-triazol-3-yl)methanone], the IC50 ([1]; Table 3-1, PC3 cells) was 100 to 1000 nM and the IC50 ([2]; Table 3-1, PC3 cells) was 100 to 1000 nM.

`CC(=O)c1c([C@@H]2C[C@H]3CC[C@@H](C2)N3C(=O)CNS(C)(=O)=O)nc2c(-c3ccc(-c4ccccc4)nc3)cnn2c1N` [Compound 1.1.23, N-(2-((1R,3s,5S)-3-(6-acetyl-7-amino-3-(6-phenylpyridin-3-yl)pyrazolo[1,5-a]pyrimidin-5-yl)-8-azabicyclo[3.2.1]octan-8-yl)-2-oxoethyl)methanesulfonamide] was tested, and the IC50 [1, 4] was 100 to 1000 nM and the IC50 [2, 4] was 100 to 1000 nM.

`CC(=O)c1c([C@@H]2C[C@H]3CC[C@@H](C2)N3C(=O)c2nnc[nH]2)nc2c(-c3ccc(C4(O)CCC4)nc3)cnn2c1N` [Compound 7.40, 1-(5-((1R,3s,5S)-8-(4H-1,2,4-triazole-3-carbonyl)-8-azabicyclo[3.2.1]octan-3-yl)-7-amino-3-(6-(1-hydroxycyclobutyl)pyridin-3-yl)pyrazolo[1,5-a]pyrimidin-6-yl)ethanone] was tested, and the IC50 [1, 5] was 1 to 100 nM and the IC50 [2, 5] was 1 to 100 nM.

With `CC(=O)c1c([C@@H]2C[C@H]3CC[C@@H](C2)N3C(=O)c2nnc[nH]2)nc2c(-c3ccc(C)nc3)cnn2c1N` [Compound 1.1.79, 1-(5-((1R,3s,5S)-8-(4H-1,2,4-triazole-3-carbonyl)-8-azabicyclo[3.2.1]octan-3-yl)-7-amino-3-(6-methylpyridin-3-yl)pyrazolo[1,5-a]pyrimidin-6-yl)ethanone] the IC50 [1, 4] was 1 to 100 nM and the IC50 [2, 4] was 1 to 100 nM.

Work on `Nc1cc([C@@H]2C[C@H]3CC[C@@H](C2)N3C(=O)c2nnc[nH]2)nc2c(-c3ccc(-c4ccc(C(F)(F)F)cc4F)nc3)cnn12` [Compound 2.17, ((1R,3s,5S)-3-(7-amino-3-(6-(2-fluoro-4-(trifluoromethyl)phenyl)pyridin-3-yl)pyrazolo[1,5-a]pyrimidin-5-yl)-8-azabicyclo[3.2.1]octan-8-yl)(4H-1,2,4-triazol-3-yl)methanone] yielded an IC50 [1, 4] of 1000 to 10000 nM and an IC50 [2, 4] of 1000 to 10000 nM.

With `COc1ccc(-c2ccc(-c3cnn4c(N)c(C(C)=O)c([C@@H]5C[C@H]6CC[C@@H](C5)N6C(=O)CO)nc34)cn2)cc1F` [Compound 1.1.58, 1-((1R,3s,5S)-3-(6-acetyl-7-amino-3-(6-(3-fluoro-4-methoxyphenyl)pyridin-3-yl)pyrazolo[1,5-a]pyrimidin-5-yl)-8-azabicyclo[3.2.1]octan-8-yl)-2-hydroxyethanone] the IC50 [1, 4] was 100 to 1000 nM and the IC50 [2, 4] was 100 to 1000 nM.

`Cn1ccc(-c2ccc(-c3cnn4c(N)c(S(C)(=O)=O)c([C@@H]5C[C@H]6CC[C@@H](C5)N6C(=O)c5cn[nH]n5)nc34)cn2)n1` [Compound 3.174, ((1R,3s,5S)-3-(7-amino-3-(6-(1-methyl-1H-pyrazol-3-yl)pyridin-3-yl)-6-(methylsulfonyl)pyrazolo[1,5-a]pyrimidin-5-yl)-8-azabicyclo[3.2.1]octan-8-yl)(2H-1,2,3-triazol-4-yl)methanone] showed an IC50 [1, 3] of 100 to 1000 nM and an IC50 [2, 3] of 100 to 1000 nM.

`Nc1cc([C@@H]2C[C@H]3CC[C@@H](C2)N3C(=O)c2nnc[nH]2)nc2c(-c3cnc4[nH]ccc4c3)cnn12` [Compound 2.13, ((1R,3s,5S)-3-(7-amino-3-(1H-pyrrolo[2,3-b]pyridin-5-yl)pyrazolo[1,5-a]pyrimidin-5-yl)-8-azabicyclo[3.2.1]octan-8-yl)(1H-1,2,4-triazol-5-yl)methanone] was tested, and the IC50 [1, 4] was 1000 to 10000 nM and the IC50 [2, 4] was 1000 to 10000 nM.

Work on `Nc1c(C2CC2)c([C@@]2(O)C[C@H]3CC[C@@H](C2)N3C(=O)c2nnc[nH]2)nc2c(-c3ccc(-c4ccccc4)nc3)cnn12` [Compound 8.25, ((1R,3s,5S)-3-(7-amino-6-cyclopropyl-3-(6-phenylpyridin-3-yl)pyrazolo[1,5-a]pyrimidin-5-yl)-3-hydroxy-8-azabicyclo[3.2.1]octan-8-yl)(4H-1,2,4-triazol-3-yl)methanone] yielded an IC50 ([1]; Homo sapiens, PC-3, PC3 cells) of 1000 to 10000 nM and an IC50 ([2]; Homo sapiens, PC-3, PC3 cells) of 100 to 1000 nM.

Compound `CC(=O)c1c([C@@H]2C[C@H]3CC[C@@H](C2)N3C(=O)c2nnc(N)[nH]2)nc2c(-c3ccc(-n4cc(C)cn4)nc3)cnn2c1N` [Compound 1.1.130, 1-(7-amino-5-((1R,3s,5S)-8-(5-amino-4H-1,2,4-triazole-3-carbonyl)-8-azabicyclo[3.2.1]octan-3-yl)-3-(6-(4-methyl-1H-pyrazol-1-yl)pyridin-3-yl)pyrazolo[1,5-a]pyrimidin-6-yl)ethanone] has an IC50 [1, 4] of 1 to 100 nM and an IC50 [2, 4] of 1 to 100 nM.

`CC(=O)N1[C@@H]2CC[C@H]1C[C@H](c1nc3c(-c4ccc(-c5nc(C)cs5)nc4)cnn3c(N)c1S(C)(=O)=O)C2` [Compound 3.190, 1-((1R,3a,5S)-3-(7-amino-6-(methylsulfonyl)-3-(6-(4-methylthiazol-2-yl)pyridin-3-yl)pyrazolo[1,5-a]pyrimidin-5-yl)-8-azabicyclo[3.2.1]octan-8-yl)ethanone] showed an IC50 [1, 3] of 1000 to 10000 nM and an IC50 [2, 3] of 1000 to 10000 nM.

Compound `CS(=O)(=O)c1c([C@@H]2C[C@H]3CC[C@@H](C2)N3C(=O)c2nnc(O)[nH]2)nc2c(-c3ccc(-c4ccccc4)nc3)cnn2c1N` [Compound 3.29, ((1R,3s,5S)-3-(7-amino-6-(methylsulfonyl)-3-(6-phenylpyridin-3-yl)pyrazolo[1,5-a]pyrimidin-5-yl)-8-azabicyclo[3.2.1]octan-8-yl)(5-hydroxy-4H-1,2,4-triazol-3-yl)methanone] has an IC50 [1, 3] of 100 to 1000 nM and an IC50 [2, 3] of 100 to 1000 nM.

For `COc1ccc(-c2ccc(-c3cnn4c(N)c(C(C)=O)c([C@@H]5C[C@H]6CC[C@@H](C5)N6C(=O)c5nnc[nH]5)nc34)cn2)c(F)c1F` [Compound 1.1.65, 1-(5-((1R,3s,5S)-8-(4H-1,2,4-triazole-3-carbonyl)-8-azabicyclo[3.2.1]octan-3-yl)-7-amino-3-(6-(2,3-difluoro-4-methoxyphenyl)pyridin-3-yl)pyrazolo[1,5-a]pyrimidin-6-yl)ethanone], the IC50 [1, 4] was 1 to 100 nM and the IC50 [2, 4] was 1 to 100 nM.

Work on `COc1ccc(-c2ccc(-c3cnn4c(N)c(Br)c([C@@H]5C[C@H]6CC[C@@H](C5)N6C(=O)[C@@H](C)O)nc34)cn2)cc1CO` [Compound 2.3, (R)-1-((1R,3S,5S)-3-(7-amino-6-bromo-3-(6-(3-(hydroxymethyl)-4-methoxyphenyl)pyridin-3-yl)pyrazolo[1,5-a]pyrimidin-5-yl)-8-azabicyclo[3.2.1]octan-8-yl)-2-hydroxypropan-1-one] yielded an IC50 [1, 4] of 1 to 100 nM and an IC50 [2, 4] of 1 to 100 nM.

With `CCc1c([C@@H]2C[C@H]3CC[C@@H](C2)N3C(=O)c2nnc[nH]2)nc2c(-c3ccc(-c4ccccc4)nc3)cnn2c1N` [Compound 5.8, ((1R,3s,5S)-3-(7-amino-6-ethyl-3-(6-phenylpyridin-3-yl)pyrazolo[1,5-a]pyrimidin-5-yl)-8-azabicyclo[3.2.1]octan-8-yl)(4H-1,2,4-triazol-3-yl)methanone] the IC50 [1, 4] was 1 to 100 nM and the IC50 [2, 4] was 1 to 100 nM.

`CCNC(=O)N1[C@@H]2CC[C@H]1C[C@H](c1nc3c(-c4ccc(-c5ccccc5)nc4)cnn3c(N)c1S(C)(=O)=O)C2` [Compound 3.8, (1R,3s,5S)-3-(7-amino-6-(methylsulfonyl)-3-(6-phenylpyridin-3-yl)pyrazolo[1,5-a]pyrimidin-5-yl)-N-ethyl-8-azabicyclo[3.2.1]octane-8-carboxamide] was tested, and the IC50 [1, 3] was 100 to 1000 nM and the IC50 [2, 3] was 100 to 1000 nM.

Compound `CS(=O)(=O)c1c([C@@H]2C[C@H]3CC[C@@H](C2)N3C(=O)c2nnc[nH]2)nc2c(-c3ccc(-n4cccn4)nc3)cnn2c1N` [Compound 3.150, ((1R,3s,5S)-3-(3-(6-(1H-pyrazol-1-yl)pyridin-3-yl)-7-amino-6-(methylsulfonyl)pyrazolo[1,5-a]pyrimidin-5-yl)-8-azabicyclo[3.2.1]octan-8-yl)(4H-1,2,4-triazol-3-yl)methanone] has an IC50 [1, 3] of 1 to 100 nM and an IC50 [2, 3] of 1 to 100 nM.

`CC(=O)c1c([C@@H]2C[C@H]3CC(O)[C@@H](C2)N3C(=O)CO)nc2c(-c3ccc(-c4ccccc4)nc3)cnn2c1N` (stereo partly drawn) [Compound 8.35, 1-((1S,3R,5R)-3-(6-acetyl-7-amino-3-(6-phenylpyridin-3-yl)pyrazolo[1,5-a]pyrimidin-5-yl)-6-hydroxy-8-azabicyclo[3.2.1]octan-8-yl)-2-hydroxyethanone] showed an IC50 ([1]; Homo sapiens, PC-3, PC3 cells) of 1 to 100 nM and an IC50 ([2]; Homo sapiens, PC-3, PC3 cells) of 1 to 100 nM.
